Measurements published in patent publication US9913854B2, “Methods and compositions for reducing the proliferation of gram positive bacteria” (priority 2012, dated 2018).
Converted amounts (≈) assume the structure as drawn. “Also recorded” adds a separate entry of the source. Where two headings read alike, the source gives them in different places.

What was measured:
[1] = test system: S. aureus Newman; assay: MIC, CLSI broth microplate assay; format: cell-based, Staphylococcus aureus
Procedure: (§1) In vitro susceptibility tests (minimum inhibitory concentration [MIC]) were conducted using the Clinical and Laboratory Standards Institute (CLSI) broth microplate assay guidelines (Clinical and Laboratory Standards Institute, Performance Standards for Antimicrobial Susceptibility Testing; 16th Informational Supplement, CLSI M100-S16, Wayne, Pa., 2006). Because of temperature sensitivity, to determine susceptibility of RN4220 ΔltaS, bacteria were cultured at 30° C. for 20 h.

[2] = test system: S. aureus RN4220; assay: MIC, CLSI broth microplate assay; format: cell-based, Staphylococcus aureus
Procedure: as §1

[3] = test system: S. aureus RN4220ΔltaS-ltaS; assay: MIC, CLSI broth microplate assay; format: cell-based, Staphylococcus aureus
Procedure: as §1

[4] = test system: S. aureus RN4220ΔltaS; assay: MIC, CLSI broth microplate assay; format: cell-based, Staphylococcus aureus
Procedure: as §1

[5] = test system: S. aureus RN4220ΔtarK; assay: MIC, CLSI broth microplate assay; format: cell-based, Staphylococcus aureus
Procedure: as §1

[6] = test system: S. aureus NewmanΔtarO; assay: MIC, CLSI broth microplate assay; format: cell-based; settings: Staphylococcus aureus
Procedure: as §1

[7] = test system: S. aureus RN4220ΔtarA; assay: MIC, CLSI broth microplate assay; format: cell-based; settings: Staphylococcus aureus
Procedure: as §1

[8] = test system: S. aureus RN4220ΔtarO; assay: MIC, CLSI broth microplate assay; format: cell-based; settings: Staphylococcus aureus
Procedure: as §1

[9] = test system: S. aureus RN6390; assay: MIC, CLSI broth microplate assay; format: cell-based; settings: Staphylococcus aureus; strain RN6390
Procedure: as §1

[10] = test system: S. aureus RN6390ΔtarO; assay: MIC, CLSI broth microplate assay; format: cell-based; settings: Staphylococcus aureus
Procedure: as §1

[11] = test system: S. aureus tarO and tarA mutants lacking WTA; assay: MIC, for mutants lacking WTA; format: cell-based, Staphylococcus aureus
Procedure: as §1
Minimum inhibitory concentrations (MICs) for Congo Red were determined by microdilution assay. Consistent with the results of agar plate tests, the parental strain RN4220, and isogenic tarK, and ltaS mutants, as well as an ltaS strain complemented on a multicopy plasmid, were all resistant to Congo Red at concentrations>1024 mg/L (Table 2).

[12] = test system: S. aureus tarO mutant; assay: Dye sensitivity test on agar plates; format: cell-based, Staphylococcus aureus; settings: for growth on agar with Congo Red: tarO mutant, 0.08% w/v Congo Red; for selective suppression of growth of tarO mutant but not parental strain on dye agar: Newman ΔtarO vs Newman
Procedure: (§2) Congo Red sensitivity tests were conducted as previously described (Hubscher et al., FEMS Microbiol. Lett. 295:251-260, 2009), with minor modification. Briefly, 10-fold dilutions, starting at 10^6 colony forming units (CFU) in 5 μL, were spotted on brain heart infusion (BHI) agar or Luria-Bertani (LB) agar, supplemented with 0.08% (w/v) Congo Red where appropriate. The Congo Red agar plates were incubated at 37° C. or 30° C. for 24 hours. As a precaution to prevent possible inactivation of Congo Red by light, the plates were incubated in the dark. Sensitivity to Congo Red was determined by comparing colony density between parental and mutant strains on control and Congo Red plates. Sudan Red 7B (0.08% w/v), Calcofluor White (0.01% w/v), Direct Red (0.08% w/v), Mordant Black (0.08% w/v), or Acid Red (0.08% w/v) in BHI agar were tested similarly.

[13] = test system: S. aureus tarA mutant; assay: Congo Red sensitivity test on agar plates; format: cell-based, Staphylococcus aureus; settings: 0.08% w/v Congo Red
Procedure: as §2

[14] = test system: S. aureus tarK mutant; assay: Congo Red sensitivity test on agar plates; format: cell-based, Staphylococcus aureus; settings: 0.08% w/v Congo Red
Procedure: as §2

[15] = test system: S. aureus ltaS mutant; assay: Congo Red sensitivity test on agar plates; format: cell-based, Staphylococcus aureus; settings: LB agar, 0.08% w/v Congo Red, 30° C. and 37° C.
Procedure: as §2
To determine whether loss of lipoteichoic acid (LTA) could also generate the Congo Red susceptible phenotype, an ltaS mutant of S. aureus was tested (Oku et al., J. Bacteriol. 191:141-151, 2009). The ltaS mutant is sensitive to heat and low osmolarity (Grundling et al., Proc. Natl. Acad. Sci. U.S.A. 104:8478-8483, 2007; Oku et al., J. Bacteriol. 191:141-151, 2009). Therefore, Congo Red was added at 0.08% w/v to Luria broth (LB) agar (having a higher NaCl concentration than BHI), and the strain was tested for Congo Red sensitivity at 30° C. […]

[16] = test system: S. aureus Newman ΔtarO; assay: Kinetics of Congo Red inhibition, growth in TSB; format: cell-based, Staphylococcus aureus; settings: Newman tarO, 10 mg/L Congo Red
Procedure: FIG. 5 is a graph showing the growth of S. aureus strain Newman (closed circles) and Newman ΔtarO (open circles) in tryptic soy broth (TSB) before and following the addition of 10 mg/L Congo Red (black arrow).
To assess kinetics of Congo Red inhibition, growth of S. aureus strain Newman and its tarO mutant were assessed in TSB containing 10 mg/L Congo Red. Newman tarO began to die 3 hours after addition of Congo Red (FIG. 5). To probe the mechanism of killing, Congo Red-inhibited cells were examined by transmission electron microscopy (TEM) (FIGS. 6A-6D). […] Since Congo red contains two sulfonic-acid groups, the MICs for sulfanilamide which is developed from prontocil were determined in the Newman and tarO mutant strains.

[17] = test system: S. aureus Newman; assay: Transmission electron microscopy after Congo Red; format: cell-based, Staphylococcus aureus; settings: Newman parental; 6 hours in TSB with 10 mg/L Congo Red
Procedure: Newman or Newman ΔtarO were inoculated to approximately 10^9 CFU/mL in TSB containing 10 mg/L Congo Red, and cultured at 37° C. for 6 h. Cells were collected at 0 or 6 h, fixed in Karnovsky's fixative (2% paraformaldehyde and 2.5% glutaraldehyde in cacodylate buffer [pH 7.4]), and processed for TEM using standard procedures described in Suzuki et al. (Invest. Ophthalmol. Vis. Sci. 52:3187-3192, 2011). For TEM, 60- to […] sections were obtained, viewed, and photographed with a transmission electron microscope (model 410; Philips Electronics NV, Eindhoven, The Netherlands).

[18] = test system: S. aureus strain Newman; assay: Checkerboard assay, Congo Red and tunicamycin; format: cell-based, Staphylococcus aureus
Procedure: A standard checkerboard assay, using Congo Red and tunicamycin, was performed as described in Lorian (Antibiotics in Laboratory Medicine, 4th Edition, Baltimore, Md., Williams & Wilkins Co., 1996). To assess the kinetics of inhibition, cultures of strain Newman were started in TSB containing either Congo Red or tunicamycin. Briefly, an overnight culture of S. aureus strain Newman was diluted to approximately 10^5 CFU/mL in 10 mL of TSB containing 10 mg/L Congo Red or 1 mg/L tunicamycin, and cultured at 37° C. statically. Following 2 h incubation, tunicamycin (1 mg/L final concentration) was added to the Congo Red culture, or Congo Red (10 mg/L final concentration) was added to the tunicamycin culture. Following 6 h of additional incubation bacteria were enumerated by plating serial ten-fold dilutions.

[19] = test system: C. elegans; assay: Toxicity against uninfected C. elegans; format: in vivo, Caenorhabditis elegans; settings: single agent; tunicamycin 6.25-100.0 mg/L, Congo Red 3.1-50.0 mg/L; uninfected worms
Procedure: (§3) C. elegans glp-4(bn2); sek-1(km4) was used for all experiments and infected essentially as described in Breger et al. (PLoS Pathog. 3:e18, 2007), with minor modifications. This mutant line was selected for liquid assay experiments because they are unable to produce progeny at 25° C. (Miyata et al., Genetics 178:903-918, 2008), and the deleted sek-1 gene encodes a conserved mitogen-activated protein (MAP) kinase involved in innate immunity (Kim et al., Science 297:623-626, 2002), expediting the rate of killing. Worms were cultured and maintained on nematode growth medium (NGM) agar containing lawns of E. coli HB101 (Breger et al., PLoS Pathog. 3:e18, 2007).
(§4) To assess the sensitivity of C. elegans to infection by S. aureus RN6390 or an isogenic ΔtarO strain, the bacteria were cultured in TSB at 37° C. Overnight cultures were plated onto 10 cm TSB agar plates for 18 hours at 37° C., and cooled at room temperature for 30 minutes. Washed young adult worms were infected on lawns of S. aureus strains for 3 hours at 25° C. After washing three times with M9, worms were transferred into the wells of a six well microtiter plates (40 worms per well). Each well contained 2 mL of assay medium (20% BHI: 80% M9 v/v) containing various concentrations of Congo Red, tunicamycin, or a combination of Congo Red and tunicamycin. […]

[20] = test system: C. elegans infected with S. aureus RN6390; assay: C. elegans infection model, S. aureus RN6390; format: in vivo, Caenorhabditis elegans; settings: Congo Red alone 3.1-25.0 mg/L
Procedure: as §3, §4

[21] = test system: C. elegans infected with S. aureus RN6390 ΔtarO; assay: C. elegans infection model, S. aureus RN6390 ΔtarO; format: in vivo, Caenorhabditis elegans; settings: Congo Red alone 3.1-25.0 mg/L
Procedure: as §3, §4

[22] = BHI agar, dye 0.08% w/v, 37° C., 24 hours

Nc1c(/N=N/c2ccc(-c3ccc(/N=N/c4cc(S(=O)(=O)O)c5ccccc5c4N)cc3)cc2)cc(S(=O)(=O)O)c2ccccc12 [Congo Red]
MIC ([1]; Staphylococcus aureus, NEWMAN): > 1020 µg/mL
MIC ([1]; strain Newman, single agent): >1024 µg/mL
MIC ([2]; Staphylococcus aureus, RN4220): > 1020 µg/mL
MIC ([2]; strain RN4220): >1024 µg/mL
MIC ([3]; Staphylococcus aureus): > 1020 µg/mL
MIC ([3]; strain RN4220ΔltaS-ltaS (ltaS complemented on multicopy plasmid)): >1024 µg/mL
MIC ([4]; Staphylococcus aureus, 20 h): > 1020 µg/mL
MIC ([4]; strain RN4220ΔltaS, cultured at 30° C. for 20 h): >1024 µg/mL
MIC ([5]; Staphylococcus aureus): > 1020 µg/mL
MIC ([5]; strain RN4220ΔtarK): >1024 µg/mL
MIC [6]: 1 µg/mL (≈ 1.53 µM)
MIC [7]: 0.5 µg/mL (≈ 0.766 µM)
MIC [8]: 2 µg/mL (≈ 3.06 µM)
MIC [9]: > 1020 µg/mL
MIC [10]: 4 µg/mL (≈ 6.13 µM)
MIC ([11]; Staphylococcus aureus): 0.5 to 4 µg/mL (≈ 0.766 to 6.13 µM)
MIC fold lower than resistant strains ([11]; tarO and tarA mutants vs parental, tarK, ltaS strains): 250-2000 fold
growth on agar with Congo Red ([12]; BHI agar, 37° C., 24 hours): highly susceptible; also recorded: neither tarA nor tarO strains grew
growth on agar with Congo Red ([12]; LB agar, 30° C. and 37° C.): inhibited
growth on agar with Congo Red [13]: neither tarA nor tarO strains grew
growth on agar with Congo Red [14]: not affected
growth on agar with Congo Red [15]: no effect
time after addition of Congo Red at which bacteria began to die [16]: 3 h
cell morphology by TEM [17]: not detectably affected
Congo Red MIC in presence of tunicamycin ([18]; tunicamycin as low as 5 mg/L): 1 µg/mL
synergy with tunicamycin ([18]; two-dimensional checkerboard, 20 hours, 37° C.): strong synergy
toxicity for C. elegans [19]: little toxicity
rescue of infected nematodes (survival) [20]: little effect; also recorded: inability
rescue of infected nematodes (survival) [21]: rescue

Direct Red
selective suppression of growth of tarO mutant but not parental strain on dye agar [12, 22]: conferred susceptibility

Mordant black
selective suppression of growth of tarO mutant but not parental strain on dye agar [12, 22]: conferred susceptibility

tunicamycin
toxicity for C. elegans [19]: dose dependent toxicity

CCNc1ccc2ccccc2c1N=Nc1ccc(N=Nc2ccccc2)cc1 [Sudan Red 7B]
selective suppression of growth of tarO mutant but not parental strain on dye agar [12, 22]: conferred susceptibility

CCN(CC)c1ccc2c(-c3ccc(S(=O)(=O)[O-])cc3S(=O)(=O)[O-])c3ccc(=[N+](CC)CC)cc-3oc2c1.[Na+] [Acid Red]
selective suppression of growth of tarO mutant but not parental strain on dye agar [12, 22]: conferred susceptibility

Nc1ccc(S(N)(=O)=O)cc1 [sulfanilamide]
MIC ([1]; Staphylococcus aureus, strain Newman, single agent, read-out: MIC): > 128 µg/mL
MIC [6]: > 128 µg/mL

O=S(=O)(O)c1cc(Nc2nc(Nc3ccccc3)nc(N(CCO)CCO)n2)ccc1/C=C/c1ccc(Nc2nc(Nc3ccccc3)nc(N(CCO)CCO)n2)cc1S(=O)(=O)O [Calcofluor White]
selective suppression of growth of tarO mutant but not parental strain on dye agar ([12]; BHI agar, dye 0.01% w/v, 37° C., 24 hours): conferred susceptibility
